Experimental data published in paper PMC5762908 (Scientific Reports, 2018).
pIC50: −log10 of the molar value. Like-named read-outs stand apart in the source and are kept apart here.

Tests used:
[1] = system: WT SV40 MEF (wild-type immortalized mouse embryonic fibroblast); experiment: Cytotoxic activity, alamar blue assay, WT SV40 MEF; format: cell-based; conditions: 72 h incubation
[2] = system: PBMC (human peripheral blood mononuclear cells); experiment: Cytotoxic activity, alamar blue assay, PBMC non-cancer cells; format: cell-based; conditions: 72 h incubation
[3] = system: MRC-5 (human lung fibroblast); experiment: Cytotoxic activity, alamar blue assay, MRC-5 non-cancer cells; format: cell-based
advanced CRC = conditions: cited from earlier work
[4] = system: BAD KO SV40 MEF (BAD gene knockout immortalized mouse embryonic fibroblast); experiment: Cytotoxic activity, alamar blue assay, BAD KO SV40 MEF; format: cell-based; conditions: 72 h incubation
calf thymus DNA (ctDNA) = experiment: DNA intercalation assay, ethidium bromide displacement; format: binding; conditions: complex 5, 10 and 20 µM; doxorubicin 10 µM; data not shown
Procedure: DNA intercalation was assessed by examining the ability of the complex to displace ethidium bromide from ctDNA (Sigma-Aldrich Co.)[32]. The DNA intercalation assay was conducted in 96-well plate (100 µL) and contained 15 µg/mL ctDNA, 1.5 µM ethidium bromide and 5, 10 and 20 µM of complex in saline solution. The vehicle (0.1% DMSO) used for diluting the compound tested was used as the negative control. Doxorubicin (10 µM) was used as the positive control. Fluorescence was measured using excitation and emission wavelengths of 320 nm and 600 nm, respectively using the spectraMax Microplate Reader (Molecular Devices).

[5] = Homo sapiens, MRC5, 72 h incubation

Compound | pIC50 ([1]; Mus musculus, Fibroblast) | IC50 ([2]; Homo sapiens, PBMC) | IC50 [3, 5] | Response rates (advanced CRC; 5-FU as a monotherapy) | Response rates (advanced CRC; 5-FU combined with irinotecan and oxaliplatin) | pIC50 ([4]; Mus musculus, Fibroblast) | Ethidium bromide fluorescence (displacement from ctDNA) (calf thymus DNA (ctDNA)) | IC50 [2] | IC50 ([3]; 72 h incubation) | pIC50 [1] | pIC50 [4]
O=c1[nH]cc(F)c(=O)[nH]1 [5-FU, 5-fluorouracil] | 5.77 | 78 µM | 57.9 µM | 10–15% | 40–50% | 5.14 | – | – | – | – | –
COc1cccc2c1C(=O)c1c(O)c3c(c(O)c1C2=O)C[C@@](O)(C(=O)CO)C[C@@H]3O[C@H]1C[C@H](N)[C@H](O)[C@H](C)O1 [DOX, Doxorubicin] | 7.52 | 5.1 µM | 1.6 µM | – | – | 6.40 | reduced the fluorescence intensity of ethidium bromide | – | – | – | –
O=C1[O][Pt]2([NH][C@@H]3CCCC[C@H]3[NH]2)[O]C1=O [OXA, oxaliplatin] | – | – | – | – | – | – | – | 12.4 µM | 1.4 µM | – | –
[Ru(5-FU)(PPh3)2(bipy)]PF6 [RU/5-FU] | – | – | – | – | – | – | did not decrease the ethidium bromide fluorescence | 5.7 µM | 9.5 µM | 5.72 | 5.74
